Results reported in ChEMBL document CHEMBL1122277, “l-1,2,3,4-Tetrahydro-8-methoxy-5-(methylthio)-2-naphthalenamine: a potent and selective agonist at alpha 1-adrenoceptors” (J Med Chem, 1983).
pEC50: −log10 of the molar value.

Tests used:
Assay type in all cases: functional
[1] = test system: Oryctolagus cuniculus; test: Blockade of the constrictor response to exogenously administered L-norepinephrine
[2] = organism: Oryctolagus cuniculus; test: (§1) Alpha-1-adrenergic potency measured in the isolated rabbit ear artery
[3] = organism: Oryctolagus cuniculus; test: as §1; remark: listed apart in the source

Row | SMILES | KB [1] | pEC50 [2] | pEC50 [3]
1 | COC(=O)[C@@H]1[C@H]2C[C@H]3c4[nH]c5ccccc5c4CCN3C[C@@H]2CC[C@@H]1O [YOHIMBINE] | 4000 nM |  | 
2 | COc1ccc(SC)c2c1CC(N)CC2 (centres undefined) |  | 8.05 | 7.22
3 | COc1cc2nc(N3CCN(C(=O)c4ccco4)CC3)nc(N)c2cc1OC [PRAZOSIN] | 2.7 nM |  | 
